Measurements from article PMC2075610 (Biochimica et Biophysica Acta. Molecular Basis of Disease, 2006).
Numbering of substitutions follows the chain as printed. Residues, ends and D or L forms follow the SMILES beside them. *: point of attachment. For = O=C*

Experiments:
R190/N192 FPR [1] = molecular target: T1, R190/N192 FPR (Homo sapiens, UniProt P21462); assay: biochemical; format: binding
R190/K192 FPR [2] = molecular target: T2, R190/K192 FPR (Homo sapiens, UniProt P21462, N192K); assay: biochemical; format: binding
W190/N192 FPR [3] = molecular target: T3, W190/N192 FPR (Homo sapiens, UniProt P21462, R190W); assay: biochemical; format: binding; conditions: for Ki: Ki (nM ± SEM) for binding of peptides to W190/N192 FPR
R190/K192 FPR [4] = molecular target: T2, R190/K192 FPR; assay: biochemical; format: biochemical
R190/N192 FPR [5] = molecular target: T1, R190/N192 FPR; assay: biochemical; format: biochemical
W190/N192 FPR [6] = molecular target: T3, W190/N192 FPR; assay: biochemical; format: biochemical
MMWLL = assay: flow
reverse 229E peptide = assay: flow

T1 sequence (P21462 whole entry, looked up): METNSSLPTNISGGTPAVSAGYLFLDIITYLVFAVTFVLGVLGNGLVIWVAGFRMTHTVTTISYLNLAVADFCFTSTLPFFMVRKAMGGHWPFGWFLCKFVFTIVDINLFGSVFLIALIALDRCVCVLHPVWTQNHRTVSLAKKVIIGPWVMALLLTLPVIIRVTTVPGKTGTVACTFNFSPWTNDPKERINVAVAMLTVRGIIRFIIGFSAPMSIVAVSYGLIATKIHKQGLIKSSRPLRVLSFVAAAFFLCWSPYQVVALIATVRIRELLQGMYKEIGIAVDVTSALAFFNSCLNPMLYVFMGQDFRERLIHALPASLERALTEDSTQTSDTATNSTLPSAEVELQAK
T3 sequence (P21462 whole entry R190W, looked up): as the sequence (P21462 whole entry, looked up) above, with R190W counted along it

Molecule: CC(C)C[C@H](NC(=O)[C@@H](N)CCCCN)C(=O)N[C@@H](CC(N)=O)C(=O)N[C@@H](CO)C(=O)N[C@@H](Cc1c[nH]c2ccccc12)C(=O)N[C@@H](CC(=O)O)C(=O)N[C@H](C(=O)N[C@@H](Cc1ccccc1)C(=O)NCC(=O)N[C@@H](CC(N)=O)C(=O)N[C@@H](Cc1c[nH]c2ccccc12)C(=O)N[C@@H](Cc1ccccc1)C(=O)O)C(C)C
- Ki (R190/N192 FPR [1]): 15000 nM
- Ki (R190/K192 FPR [2]): 9500 nM
- Ki (W190/N192 FPR [3]): 4700 ± 290 nM

Molecule: CSCC[C@H](NC=O)C(=O)N[C@@H](Cc1ccc(O)cc1)C(=O)N[C@H](C(=O)N[C@@H](CCCCN)C(=O)N[C@@H](Cc1c[nH]c2ccccc12)C(=O)N1CCC[C@H]1C(=O)N[C@@H](Cc1c[nH]c2ccccc12)C(=O)N[C@@H](Cc1ccc(O)cc1)C(=O)N[C@H](C(=O)N[C@@H](Cc1c[nH]c2ccccc12)C(=O)N[C@@H](CC(C)C)C(=O)O)C(C)C)C(C)C (For-MYVKWPWYVWL-OH)
- stimulation of GTPγS binding (R190/K192 FPR [4]): stimulated GTPγS binding
- Ki (R190/N192 FPR [1]): 134 ± 9 nM
- Ki (R190/K192 FPR [2]): 134 ± 12 nM
- stimulation of GTPγS binding (R190/N192 FPR [5]): stimulated GTPγS binding
- stimulation of GTPγS binding (W190/N192 FPR [6]): stimulated GTPγS binding
- Ki (W190/N192 FPR [3]): 133 ± 8 nM

Molecule: CC(C)C[C@H](NC(=O)[C@H](CO)NC(=O)[C@H](C)NC(=O)[C@H](Cc1c[nH]c2ccccc12)NC(=O)[C@H](CCCCN)NC(=O)[C@H](CC(=O)O)NC(=O)[C@H](CC(C)C)NC(=O)[C@@H](N)CCC(=O)O)C(=O)N[C@@H](Cc1c[nH]c2ccccc12)C(=O)N[C@@H](CC(N)=O)C(=O)N[C@@H](Cc1c[nH]c2ccccc12)C(=O)N[C@@H](Cc1ccccc1)C(=O)O (H-ELDKWASLWNWF-OH)
- Ki (R190/N192 FPR [1]): 1200 ± 100 nM
- Ki (R190/K192 FPR [2]): 940 ± 150 nM
- Ki (W190/N192 FPR [3]): 1050 ± 100 nM

Molecule: CSCC[C@H](N)C(=O)N[C@@H](Cc1ccc(O)cc1)C(=O)N[C@H](C(=O)N[C@@H](CCCCN)C(=O)N[C@@H](Cc1c[nH]c2ccccc12)C(=O)N1CCC[C@H]1C(=O)N[C@@H](Cc1c[nH]c2ccccc12)C(=O)N[C@@H](Cc1ccc(O)cc1)C(=O)N[C@H](C(=O)N[C@@H](Cc1c[nH]c2ccccc12)C(=O)N[C@@H](CC(C)C)C(=O)O)C(C)C)C(C)C (H-MYVKWPWYVWL-OH)
- inhibition of 300 nM formyl-MYVKWPWYVWL stimulation of GTPγS binding (R190/K192 FPR [4]): did not have a significant effect
- stimulation of GTPγS binding (R190/K192 FPR [4]): neither ETYIKWPWWVWL nor MYVKWPWYVWL had any effect
- Ki (R190/N192 FPR [1]): 783 ± 50 nM
- fold enhancement of affinity on formylation (R190/N192 FPR [1]): 6 fold
- Ki (R190/K192 FPR [2]): 837 ± 32 nM
- fold enhancement of affinity on formylation (R190/K192 FPR [2]): 6 fold
- inhibition of 300 nM formyl-MYVKWPWYVWL stimulation of GTPγS binding (R190/N192 FPR [5]): did not have a significant effect
- stimulation of GTPγS binding (R190/N192 FPR [5]): neither ETYIKWPWWVWL nor MYVKWPWYVWL had any effect
- inhibition of 300 nM formyl-MYVKWPWYVWL stimulation of GTPγS binding (W190/N192 FPR [6]): 60%
- stimulation of GTPγS binding (W190/N192 FPR [6]): neither ETYIKWPWWVWL nor MYVKWPWYVWL had any effect
- fold enhancement of affinity on formylation (W190/N192 FPR [3]): 2 fold
- fold higher affinity for W190/N192 than for R190/N192 or R190/K192 (W190/N192 FPR [3]): 3 fold
- Ki (W190/N192 FPR [3]): 263 ± 9 nM

Molecule: CC[C@H](C)[C@H](NC(=O)[C@H](CC(N)=O)NC(=O)[C@H](CC(=O)O)NC(=O)[C@@H](NC(=O)[C@H](CC(C)C)NC(=O)[C@@H](NC(=O)[C@H](CCC(N)=O)NC(=O)[C@H](CC(C)C)NC(=O)[C@H](CCCCN)NC(=O)[C@H](CCC(N)=O)NC(=O)[C@@H](N)C(C)C)[C@@H](C)O)[C@@H](C)CC)C(=O)N[C@@H](CC(N)=O)C(=O)N[C@@H](CO)C(=O)N[C@H](C(=O)N[C@@H](CC(C)C)C(=O)N[C@H](C(=O)N[C@@H](CC(=O)O)C(=O)N[C@@H](CC(C)C)C(=O)N[C@@H](CCCCN)C(=O)N[C@@H](Cc1c[nH]c2ccccc12)C(=O)N[C@@H](CC(C)C)C(=O)N[C@@H](CC(N)=O)C(=O)N[C@@H](CCCNC(=N)N)C(=O)N[C@H](C(=O)N[C@@H](CCC(=O)O)C(=O)N[C@H](C(=O)N[C@@H](Cc1ccc(O)cc1)C(=O)N[C@H](C(=O)N[C@@H](CCCCN)C(=O)N[C@@H](Cc1c[nH]c2ccccc12)C(=O)N1CCC[C@H]1C(=O)N[C@@H](Cc1c[nH]c2ccccc12)C(=O)N[C@@H](Cc1c[nH]c2ccccc12)C(=O)N[C@H](C(=O)N[C@@H](Cc1c[nH]c2ccccc12)C(=O)N[C@@H](CC(C)C)C(=O)O)C(C)C)[C@@H](C)CC)[C@@H](C)O)C(C)C)C(C)C)[C@@H](C)O [Coronavirus 229E 36 mer]
- Ki (R190/N192 FPR [1]): 10000 nM
- Ki (R190/K192 FPR [2]): 6800 nM
- Ki (W190/N192 FPR [3]): 1300 ± 60 nM

Molecule: CC[C@H](C)[C@H](NC(=O)[C@H](C)NC(=O)[C@H](CCC(=O)O)NC(=O)[C@H](CCC(N)=O)NC(=O)[C@H](CC(C)C)NC(=O)[C@H](CCCNC(=N)N)NC(=O)[C@H](CC(N)=O)NC(=O)[C@@H](N)CCSC)C(=O)N[C@@H](CCCCN)C(=O)N[C@H](C(=O)N[C@@H](CC(C)C)C(=O)N[C@@H](CC(N)=O)C(=O)N[C@@H](CCC(N)=O)C(=O)N[C@@H](CO)C(=O)N[C@@H](Cc1ccc(O)cc1)C(=O)N[C@H](C(=O)N[C@@H](CC(N)=O)C(=O)N[C@@H](CC(C)C)C(=O)N[C@@H](CCCCN)C(=O)N[C@@H](CC(=O)O)C(=O)N[C@H](C(=O)NCC(=O)N[C@H](C(=O)N[C@@H](Cc1ccc(O)cc1)C(=O)N[C@@H](CCC(=O)O)C(=O)N[C@@H](Cc1ccc(O)cc1)C(=O)N[C@@H](Cc1ccc(O)cc1)C(=O)N[C@H](C(=O)N[C@@H](CCCCN)C(=O)N[C@@H](Cc1c[nH]c2ccccc12)C(=O)N1CCC[C@H]1C(=O)N[C@@H](Cc1c[nH]c2ccccc12)C(=O)N[C@@H](Cc1ccc(O)cc1)C(=O)N[C@H](C(=O)N[C@@H](Cc1c[nH]c2ccccc12)C(=O)N[C@@H](CC(C)C)C(=O)O)C(C)C)C(C)C)[C@@H](C)O)[C@@H](C)CC)[C@@H](C)CC)C(C)C [Coronavirus OC43 36mer]
- Ki (R190/N192 FPR [1]): 850 ± 80 nM
- Ki (R190/K192 FPR [2]): 740 ± 80 nM
- Ki (W190/N192 FPR [3]): 460 ± 50 nM

Molecule: CC[C@H](C)[C@H](NC(=O)[C@H](Cc1ccc(O)cc1)NC(=O)[C@@H](NC(=O)[C@@H](N)CCC(=O)O)[C@@H](C)O)C(=O)N[C@@H](CCCCN)C(=O)N[C@@H](Cc1c[nH]c2ccccc12)C(=O)N1CCC[C@H]1C(=O)O [ETYIKWP] (H-ETYIKWP-OH)
- Ki (R190/N192 FPR [1]): > 260000 nM
- Ki (R190/K192 FPR [2]): > 260000 nM
- EC50 for inhibition of stimulation of GTPγS binding by formyl-Nle–Leu–Phe (W190/N192 FPR [6]): had no effect
- Ki (W190/N192 FPR [3]): > 260000 nM

Molecule: CC[C@H](C)[C@H](NC(=O)[C@H](CC(N)=O)NC(=O)[C@H](C)NC(=O)[C@H](CCC(=O)O)NC(=O)[C@H](CC(C)C)NC(=O)[C@@H](N)Cc1ccc(O)cc1)C(=O)N[C@@H](CO)C(=O)N[C@@H](CCC(=O)O)C(=O)N[C@@H](CC(C)C)C(=O)N[C@@H](CC(C)C)C(=O)N[C@@H](CCC(=O)O)C(=O)N[C@@H](CCC(N)=O)C(=O)N[C@@H](C)C(=O)N[C@@H](CCC(N)=O)C(=O)N[C@H](C(=O)N[C@@H](CCC(N)=O)C(=O)N[C@@H](CCC(N)=O)C(=O)N[C@@H](CCC(=O)O)C(=O)N[C@@H](CCCCN)C(=O)N[C@@H](CC(N)=O)C(=O)N[C@@H](CCSC)C(=O)N[C@@H](Cc1ccc(O)cc1)C(=O)N[C@@H](CCC(=O)O)C(=O)N[C@@H](CC(C)C)C(=O)N[C@@H](CCC(N)=O)C(=O)N[C@@H](CCCCN)C(=O)N[C@@H](CC(C)C)C(=O)N[C@@H](CC(N)=O)C(=O)N[C@@H](CO)C(=O)N[C@@H](Cc1c[nH]c2ccccc12)C(=O)N[C@@H](CC(=O)O)C(=O)N[C@H](C(=O)N[C@@H](Cc1ccccc1)C(=O)NCC(=O)N[C@@H](CC(N)=O)C(=O)N[C@@H](Cc1c[nH]c2ccccc12)C(=O)N[C@@H](Cc1ccccc1)C(=O)O)C(C)C)[C@@H](C)CC [HIV-2 37 mer]
- Ki (R190/N192 FPR [1]): 15700 nM
- Ki (R190/K192 FPR [2]): 10000 nM
- Ki (W190/N192 FPR [3]): 4000 ± 1000 nM

Molecule: CSCC[C@H](NC(=O)[C@@H](N)CCSC)C(=O)N[C@@H](Cc1c[nH]c2ccccc12)C(=O)N[C@@H](CC(C)C)C(=O)N[C@@H](CC(C)C)C(=O)O [MMWLL, reference compound] (H-MMWLL-OH)
- Ki (R190/N192 FPR [1]): 330 ± 50 nM
- Ki (R190/K192 FPR [2]): 190 ± 30 nM
- fold higher affinity for R190/K192 than for W190/N192 (R190/K192 FPR [2]): ~3 fold
- Ki (W190/N192 FPR [3]): 840 ± 200 nM

Molecule: CC(C)C[C@H](NC(=O)[C@H](Cc1c[nH]c2ccccc12)NC(=O)[C@@H](NC(=O)[C@H](Cc1c[nH]c2ccccc12)NC(=O)[C@H](Cc1c[nH]c2ccccc12)NC(=O)[C@@H]1CCCN1C(=O)[C@@H](N)Cc1c[nH]c2ccccc12)C(C)C)C(=O)O [WPWWVWL] (H-WPWWVWL-OH)
- Ki (R190/N192 FPR [1]): ~600 nM
- Ki (R190/K192 FPR [2]): ~600 nM
- Ki (W190/N192 FPR [3]): ~600 nM

Molecule: CC(C)C[C@H](NC(=O)[C@H](Cc1c[nH]c2ccccc12)NC(=O)[C@@H](NC(=O)[C@H](Cc1c[nH]c2ccccc12)NC(=O)[C@@H](N)Cc1c[nH]c2ccccc12)C(C)C)C(=O)O [WWVWL] (H-WWVWL-OH)
- Ki (R190/N192 FPR [1]): ~1000 nM
- Ki (R190/K192 FPR [2]): ~1400 nM
- EC50 (W190/N192 FPR [6]): 1300 nM
- Ki (W190/N192 FPR [3]): ~600 nM

B1: Formyl peptide receptor (FPR R190/K192), P21462 (protein)
chain: METNSSLPTNISGGTPAVSAGYLFLDIITYLVFAVTFVLGVLGNGLVIWVAGFRMTHTVTTISYLNLAVADFCFTSTLPFFMVRKAMGGHWPFGWFLCKFVFTIVDINLFGSVFLIALIALDRCVCVLHPVWTQNHRTVSLAKKVIIGPWVMALLLTLPVIIRVTTVPGKTGTVACTFNFSPWTNDPKERIKVAVAMLTVRGIIRFIIGFSAPMSIVAVSYGLIATKIHKQGLIKSSRPLRVLSFVAAAFFLCWSPYQVVALIATVRIRELLQGMYKEIGIAVDVTSALAFFNSCLNPMLYVFMGQDFRERLIHALPASLERALTEDSTQTSDTATNSTLPSAEVELQAK
- Ki (MMWLL): 190 nM
- Ki (reverse 229E peptide): > 50000 nM

B2: Formyl peptide receptor (FPR W190/N192), P21462 (protein)
chain: B1 chain with R190W, K192N
- Ki (MMWLL): 840 nM
- Ki (reverse 229E peptide): > 50000 nM
